The text below walks through data of patent US20100074846A1, “Campylobacter Vaccines and Methods of use” (priority 2006, published 2010).

Structures are written as SMILES.

The subject of this test is Campylobacter species pig isolates. Put plainly: nalidixic acid and cephalothin antibiotic sensitivity and resistance testing of pig isolates. The format is cell-based, Campylobacter coli.

On to `CC(=O)OCC1=C(C(=O)O)N2C(=O)[C@@H](NC(=O)Cc3cccs3)[C@H]2SC1` [Cph, cephalothin], for which the antibiotic sensitivity/resistance entry is given as “S” (pig isolate 1-Group B); “R” (pig isolate 2-Group B); “R” (pig isolate 3-Group A); “R” (pig isolate 3-Group B); “S” (pig isolate 4-Group A); “R” (pig isolate 6-Group A). Also, the antibiotic sensitivity/resistance entry (pig isolate 7-Group A) is on record as “R”.
In the case of `CCn1cc(C(=O)O)c(=O)c2ccc(C)nc21` [NA, nalidixic acid], the antibiotic sensitivity/resistance result is, setting by setting: (pig isolate 1-Group B) “S”; (pig isolate 2-Group B) “S”; (pig isolate 3-Group A) “R”; (pig isolate 3-Group B) “S”; (pig isolate 4-Group A) “S”; (pig isolate 6-Group A) “S”. Under “pig isolate 7-Group A”, the antibiotic sensitivity/resistance result is “S”.
